Reference: EP4810038A1, “METHOD FOR TREATING ALK-POSITIVE OR ROS1-POSITIVE NON-SMALL CELL LUNG CANCER” (Shenzhen TargetRx Co., Ltd., priority 2023, dated 2025)
Where “and” joins values, the source holds several entries; their conditions need not be identical. Equal entries are not always repeated. Entries after “also recorded” stand apart in the source; their conditions may differ.

Tested on: ROS1-positive advanced NSCLC
Assay: Phase I clinical trial, indication expansion phase: efficacy in group B (ROS1-positive, prior crizotinib)
Format: in vivo, human
Protocol: The anti-tumor efficacy is evaluated according to RECIST version 1.1. For patients initially evaluated as having a complete response (CR) or partial response (PR), efficacy should be confirmed at least 4 weeks later. In the patients with asymptomatic central nervous system (CNS) metastases, in addition to evaluating 5 extracranial target lesions, up to 5 intracranial target lesions will also be evaluated. The specific indicators are as follows:
"ORR" includes CR and PR, and is defined as the proportion of patients who achieve complete response or partial response.
"IC-ORR" includes CR or PR for confirmed intracranial lesions, and is defined as the proportion of the patients with complete response or partial response of intracranial lesions among the patients with intracranial lesions.
"DCR" is defined as the proportion of the patients who achieve response (PR+CR) and stable disease (SD) after a treatment.
"IC-DCR" is defined as the proportion of the patients who achieve intracranial response (PR+CR), intracranial stable disease (SD), and […] after a treatment among the patients with intracranial lesions.
"DOR" is defined as the time from the first assessment of CR or PR to progressive disease or death, and is only applicable to the patients who achieve response.
"IC-DOR" is defined as the time from the first assessment of intracranial CR or intracranial PR to progressive disease or death, and is only applicable to the patients whose intracranial lesions achieve response.
"TTR" is defined as the time from patient enrollment (first dose of investigational drug) to tumor response (CR/PR), based on the patients with objective response.
"IC-TTR" is defined as the time from patient enrollment (first dose of investigational drug) to intracranial tumor response (IC-CR/PR), based on the patients with intracranial objective response.
"PFS" is defined as the time from the first administration of the investigational drug to progressive disease (PD) or death from any cause, whichever comes first.
In the indication expansion phase, an appropriate administration regimen was determined based on the safety, tolerability, PK and efficacy data from the dose escalation phase and dose expansion phase, and the expansion was performed within the target population.
The result of a pregnancy test conducted ≤7 days prior to the first administration of the investigational drug must be negative for the women of childbearing age.

[1] = intracranial measurable lesions, Group B (n=6)

## [2H]C([2H])([2H])n1nc2c(c1C#N)-c1cnc(N)c(c1)O[C@H](C)c1cc(F)ccc1C(=O)N(C)C2 [compound A, (10R)-7-amino-12-fluoro-2-(methyl-d3)-10,16-dimethyl-15-oxo-10,15,16,17-tetrahydro-2H-8,4-(metheno)pyrazolo[4,3-h][2,5,11]benzoxadiazacyclotetradecine-3-carbonitrile]
24 ROS1-positive NSCLC patients previously treated with crizotinib
  ORR: 29.2%
ROS1-positive, six patients with measurable CNS lesions at baseline
  intracranial ORR: 50.0%
Group B, FAS, as of April 17, 2024
  median PFS: 8.36 months
[1]
  BOR CR: 0 n (%)
  BOR NE: 0 n (%)
  BOR PD: 1 (16.7) n (%)
  BOR PR: 3 n (%) and 3 (50.0) n (%)
  BOR SD: 2 (33.3) n (%)
  Confirmed ORR (95% CI): 3 (50.0) (11.8, 88.2) n (%)
  DCR (95% CI): 5 (83.3) (35.9, 99.6) n (%)
  Median DOR (95% CI): not reached
  Median TTR (range): 1.41 months and 1.41 (1.35, 1.41) months
systemic, Group B (n=24)
  BOR CR: 0 n (%)
  BOR NE: 0 n (%)
  BOR PD: 7 (29.2) n (%)
  BOR PR: 7 (29.2) n (%)
  BOR SD: 10 (41.7) n (%)
  Confirmed ORR (95% CI): 7 (29.2) (12.6,51.1) n (%)
  DCR (95% CI): 17 (70.8) (48.9, 87.4) n (%)
  Median DOR (95% CI): not reached; also recorded: NR (4.370, -)
  Median TTR (range): 1.41 months and 1.41 (1.31, 7.03) months
